The record followed here is patent US20210128537A1, “T-TYPE CALCIUM CHANNEL MODULATORS AND METHODS OF USE THEREOF” (Praxis Precision Medicines, inc., priority 2016, published 2021).

The test has as its system T-type calcium channels (CaV3.1, CaV3.2, CaV3.3) mRNA. Kind of test: Quantitative PCR of T-type Ca2+ channel expression in the hippocampus of post-SE rats. It is filed as in vivo, rat. The settings on record: 9 weeks after treatment ended. As for the experimental part:
RNA was extracted using the RNeasy Mini Kit (QIAGEN), DNA elimination columns were used to remove any genomic DNA contamination in accordance with the manufacturer's protocol. RNA concentration and purity was determined using spectrophotometric readings with the NanoDrop 3000 spectrophotometer (NanoDrop Technologies). 1 μg RNA was reverse transcribed to cDNA using the Omniscript RT Kit (QIAGEN) following the manufacturer's protocol. T-type Ca^2+ channel expression was assessed using quantitative polymerase chain reaction (qPCR). Each 10 μl reaction volume consisted in 25 ng of cDNA, 5 μl of TaqMan Universal PCR Master Mix 2× and custom designed TaqMan using catalogued 20× Taqman gene expression assays for CaV3.1 (Assay ID Rn00581051_m1, Applied Biosystems), CaV3.2 (Assay ID Rn01460348_m1, Applied Biosystems), CaV3.3 (Assay ID Rn01505208_m1, Applied Biosystems). Relative mRNA expression of the CaV3.1, CaV3.2 and CaV3.3 were compared to the geometric average of the mRNA levels of the housekeeping genes Rplp1 (Rn03467157_gH), Rpl13a (Rn00821946_g1) and Ywhaz (Assay ID: Rn00755072_m1). Analysis was performed using the ΔΔCT method. The average of the relative expression levels was compared between the different treatment groups.

Regarding `CC(C)(C)NC(=O)CN1CCC(CNC(=O)c2cc(F)cc(Cl)c2)CC1` [Z944], the “mRNA expression of T-type calcium channels in the hippocampus” value is “Reduced mRNA Expression”.
